In patent US5958947A, “DNA-affinic hypoxia selective cytotoxins” (priority 1996, dated 1999):
“And” between values parts separate entries of the source, which are not always exact repeats. Identical values can stand only once. Counter-ions that a name gives are not always drawn. Like-named read-outs stand apart in the source and are kept apart here.

How the values were obtained:
[1] = tested on: V79 Chinese hamster lung cells; conditions: intracellular concentration for an SER of 1.6, hypoxic cells; no experiment described; cited from earlier work
[2] = in vivo; cited from earlier work
[3] = Acute aerobic and hypoxic cytotoxicity (colony formation); type: cell-based, Chinese hamster; conditions: chinese hamster, aerobic v79 cells, V79 cells, aerobic, 1 hour, 37° C.; 50% inhibition of clonogenicity
Experimental: (§1) Samples of V79 Chinese hamster lung cells used in the following experiments were prepared as follows. V79 cells, exponentially growing as monolayer cultures in RPMI 1640 medium (Mediatech) supplemented with 10% fetal calf serum, were trypsinized, centrifuged for 5 min, harvested, then suspended in 25 ml Erlenmeyer flasks fitted with rubber caps at 5×10^5 cells/ml (5 ml). Individual flasks either were shaken (100 rpm) at 37° C. under aerobic conditions or made hypoxic by gassing with a 95% N2 (nitrogen)/5% CO2 (carbon dioxide) humidified gas mixture for 1 hour.
(§2) To determine the fraction of surviving cells, samples were removed, diluted and plated to provide 2×10^2 to 2×10^4 cells/well on 60 mm Linbro multi-well plates (Flow Laboratories, McLean, Virginia). The plates were incubated at 37° C. for 6 days, stained with crystal violet and examined for colony formation. Colonies of 50 cells or greater were counted. Each plotted point in FIGS. 1 and 2 represent the mean of three or four replicate experiments.

[4] = tested on: V79 Chinese hamster lung cells; test: as above; type: cell-based; conditions: V79 cells, 1 hour, 37° C.; for IC50: Cricetulus griseus, V79, 1 h, hypoxia, 50% inhibition of clonogenicity
Experimental: as §1, §2

[5] = tested on: V79 Chinese hamster lung cells; test: Radiosensitization of V79 cells; type: cell-based; conditions: for EC (SER 1.6): Cricetulus griseus; for maximum SER value: hypoxic V79 cells, 100 μM for THNLA-1, non-toxic concentrations for others; for Therapeutic index (ThI): IC50/A,1h /C1.6: in vitro, V79 cells, hydrochloride
Experimental: as §1
Radiosensitization studies were performed on V79 cells in a manner similar to the acute toxicity experiments, except that the survival fraction was determined after a predetermined radiation dose. […] One Gy is equal to 100 rads, wherein one rad is the quantity of ionizing radiation that results in the absorption of 100 ergs of energy per gram of irradiated material. Hypoxia was maintained throughout irradiation. […] Sensitization enhancement ratios (SER) were determined at a 10% survival level. […] The plotted points in FIGS. 3 and 4 represent the mean of 2 or 3 replicate experiments.

V79 cells [6] = test: Isoeffective to the oxygen dose (IsD); type: cell-based, Chinese hamster; conditions: Cricetulus griseus, V79, 1 h
Source text: The survival fraction under hypoxic conditions (plotted versus compound concentration) meets the aerobic survival fraction (radiation toxicity) at the IsD. The IsD value is a useful indicator of the overall potency of a compound as a sensitizer and cytotoxin of hypoxic cells. IsD is especially useful when comparing different compounds for hypoxic cytotoxicity and radiosensitizing efficacy.
FIGS. 5 and 6 illustrate the IsD at 7.5 Gy (FIG. 5A) and 20 Gy (FIG. 5B). FIGS. 5A and 6A include a comparison to the prior art NLA-1 compound. V79 cells were irradiated at 7.5 Gy or 20 Gy after a 1 hour exposure under hypoxia (symbols) or air (straight line), at various drug concentrations. No toxicity or radiosensitization for any tested compound was observed under aerobic conditions over the tested concentration ranges. IsD values were calculated from the intersections of the survival fractions of the hypoxic curves with the survival fraction in air. All data points in FIGS. 5 and 6 represent the mean of two replicate experiments.

[7] = Partition coefficient in octanol/water; type: physicochemical
Experimental: The partition coefficient of the hypoxia selective cytotoxins of the present invention were determined by the method of T. Fujita et al., J. Am. Chem. Soc., 86, 5175-5180 (1964), incorporated herein by reference.

calf thymus Topo I = molecular target: T1, calf thymus Topo I (Bos taurus, UniProt F1MN93); test: Topoisomerase I interaction (relaxation of supercoiled DNA); type: biochemical
T1 construct: purchased TopoGEN, Inc., Columbus, Ohio; host or cells: calf thymus
T1 sequence (F1MN93 1-767): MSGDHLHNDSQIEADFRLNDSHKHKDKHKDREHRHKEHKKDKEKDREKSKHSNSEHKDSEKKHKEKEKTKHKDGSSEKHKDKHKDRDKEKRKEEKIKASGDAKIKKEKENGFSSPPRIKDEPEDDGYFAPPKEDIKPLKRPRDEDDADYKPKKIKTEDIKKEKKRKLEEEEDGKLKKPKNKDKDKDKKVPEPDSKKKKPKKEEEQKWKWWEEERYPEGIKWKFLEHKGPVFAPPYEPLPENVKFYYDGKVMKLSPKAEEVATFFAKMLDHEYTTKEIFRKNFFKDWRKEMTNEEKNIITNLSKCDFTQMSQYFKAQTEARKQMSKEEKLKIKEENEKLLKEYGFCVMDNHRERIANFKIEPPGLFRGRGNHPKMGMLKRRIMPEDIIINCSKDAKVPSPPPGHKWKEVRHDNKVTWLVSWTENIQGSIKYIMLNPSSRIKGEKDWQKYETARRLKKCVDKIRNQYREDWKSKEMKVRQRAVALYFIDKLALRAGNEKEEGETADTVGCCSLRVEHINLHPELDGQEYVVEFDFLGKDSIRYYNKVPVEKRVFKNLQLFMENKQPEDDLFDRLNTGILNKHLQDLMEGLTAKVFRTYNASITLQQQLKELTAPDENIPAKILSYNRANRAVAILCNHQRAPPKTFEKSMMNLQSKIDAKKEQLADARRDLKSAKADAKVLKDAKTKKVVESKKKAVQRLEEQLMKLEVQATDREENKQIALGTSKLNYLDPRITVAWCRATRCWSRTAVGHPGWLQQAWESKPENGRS
Experimental: In particular, a Topo I drug screening kit (TopoGEN, Inc., Columbus, Ohio) was used to assay the topoisomerase I THNLA-1 interaction. […] Camptothecin is a Topoisomerase I poison used as an anticancer drug. Camptothecin stabilizes the Topo I-DNA cleavable complex, and therefore prevents the resealing of DNA by Topo-I.
Individual reaction mixtures were heated for 30 minutes at 37° C. on a heating block, and then 2 μl of 10% SDS - proteinase K solution was added to each reaction mixture. The resulting reaction mixtures then were heated for an additional 30 minutes at 37° C. The reaction mixtures in a loading buffer were extracted with CHCl3 prior to submarine electrophoresis on a 1% agarose gel. The DNA bands were observed visually by staining with ethidium bromide (0.5 μg/ml).

human Topo II = test: Topoisomerase II interaction (decatenation of kinetoplast DNA); type: biochemical; conditions: up to 1 mM
Experimental: A Topo II assay kit (TopoGEN, Inc., Columbus, Ohio) also was used to assay the topoisomerase II--THNLA-1 interaction. […] Individual reaction mixtures were heated for 30 minutes at 37° C. on a heating block, and then 2 μl of a 10% SDS-proteinase K solution was added to each reaction mixture. The resulting reaction mixtures then were heated for an additional 30 minutes at 37° C. After addition of a 0.1 volume of loading buffer, the reaction mixtures were extracted with CHCl3 prior to submarine electrophoresis on a 1% agarose gel containing ethidium bromide (0.5 μg/ml).

supercoiled DNA = test: DNA intercalation by agarose gel electrophoresis (mobility of supercoiled DNA); type: binding; conditions: electrophoretic gel, up to millimolar concentrations
Source text: An agarose gel electrophoresis technique was used to determine whether THNLA-1 intercalates DNA. Compounds that strongly intercalate DNA retard DNA mobility during agarose gel electrophoresis due to unwinding and extension of the dsDNA.

hypoxic cells = conditions: cited from earlier work
DNA = conditions: cited from earlier work
mammalian cell cultures = conditions: cited from earlier work
[8] = cited from earlier work
V79 cells [9] = test: Chemosensitization to L-PAM or cis-DDP in V79 cells; type: cell-based, Chinese hamster; conditions: V79 cells
Experimental: L-PAM, also known as phenylalanine mustard and available from Sigma Chem. Co., St. Louis, Mo., first was dissolved in an ethanolic solution of HCl (0.5N). The ethanolic HCl solution was buffered with propylene glycol in a 1:9 ratio of ethanolic HCl solution to propylene glycol, and finally diluted 100 fold with suspension medium. cis-DDP, a platinum-based chemotherapeutic agent available from Sigma Chem. Co., St. Louis, Mo., was dissolved in water to a predetermined concentration.
Experiments using a simultaneous addition of the sensitizer and chemotherapeutic agent for 1 hour at 37° C. under aerobic conditions were also performed.
In all experiments, controls for the hypoxic cytotoxicity of the sensitizer and the toxicity of the chemotherapeutic alone were included. Survival curves were normalized for the hypoxic cytotoxicity of sensitizer in order to determine the dose modification factor (DMF), i.e., the ratio of chemotherapeutic agent concentrations required to reduce cell survival to a predetermined level (e.g., 0.5) alone or in combination with a sensitizer. Synergism between the chemotherapeutic agent and the chemosensitizer was determined using the fractional product concept which is applied in instances of independent action of drugs, or by isobologramic analysis. The results of the chemosensitization studies are illustrated in FIGS. 12-15.

[10] = V79, 1 h, read-out: Hypoxic radiosensitizing potency: C1.6, concentration yielding an SER of 1.6, hypoxic V79 cells
[11] = V79, read-out: Intracellular concentration at C1.6: C1.6i, hypoxic radiosensitization, V79 cells (tables)

## COCC(O)Cn1ccnc1[N+](=O)[O-] (centres unmarked) [MISO]
[1]
  C1.6i of comparison sensitizers: 0.70 mM
[2]
  neurotoxicity: significant neurotoxicity

## O=C(Cn1ccnc1[N+](=O)[O-])NCCO [etanidazole]
[2]
  dose administrable to humans relative to MISO: about a threefold higher dose than MISO
  neurotoxicity: less neurotoxic

## O=[N+]([O-])c1nccn1CC(O)CN1CCCCC1 (centres unmarked) [pimonidazole]
[1]
  C1.6i of comparison sensitizers: 0.69 mM
[2]
  dose administrable to humans relative to MISO: total dose limitation similar to MISO

## CN1CCc2nc3ccccc3c(NCCCn3ccnc3[N+](=O)[O-])c2C1 [MeN-THNLA-1, 10-[3-(2-nitroimidazolyl)propylamino]-2-methyl-1,2,3,4-tetrahydro-benzo[b]-1,6-naphthyridine hydrochloride]
[3]
  IC50 at 1 h: 426 µM
[4]
  IC50: 196 µM
  Hypoxic selectivity (differential aerobic/hypoxic toxicity): IC50/A,1h /IC50/H,1h: 2.2
[5]; [10]
  EC (SER 1.6): 59 µM
[5]; [11]
  EC (SER 1.6): 586 µM
[5]
  maximum SER value: equal to OER
  Therapeutic index (ThI): IC50/A,1h /C1.6: about 7
[5]; on the basis of C1.6i values
  relative radiosensitizing potency: more potent radiosensitizer than NLA-1, miso and pimonidazole
V79 cells [6]; read-out: Isoeffective to the oxygen dose at 20 Gy: IsD
  EC (isoeffective to oxygen at 20 Gy): ~127 µM
[7]; hydrochloride
  Partition coefficient in octanol/water: PCo/w: 0.40 and 0.41
Calf thymus Topo I; in Topo I test
  formation of nicked DNA with Topo I: no formation of nicked DNA was observed
Calf thymus Topo I; supercoiled DNA
  inhibition of Topo I-induced relaxation: only partially inhibited Topo I
Human Topo II
  inhibition of Topo II-induced decatenation of kinetoplast DNA: did not inhibit the action of Topoisomerase II on kinetoplast DNA
Supercoiled DNA
  effect on mobility of supercoiled DNA: do not affect the mobility of supercoiled DNA
Water solubility
  solubility: ~20 mM

## O=[N+]([O-])c1nccn1CC(O)CN1CC1 (centres unmarked) [RSU-1069]
Hypoxic cells; experimental systems
  activity relative to MISO: substantially greater activity than MISO
Hypoxic cells; in vitro
  fold lower toxic concentration for hypoxic versus aerobic cells: ~100 fold

## CN(C)CCCNc1c2ccccc2nc2cccc([N+](=O)[O-])c12 [nitracrine, 1-nitro-acridine]
DNA
  DNA dissociation kinetics / intercalation: faster dissociation kinetics from DNA than the other nitroacridine isomers
Mammalian cell cultures
  potency as radiation sensitizer / hypoxia selective cytotoxin: potent hypoxia selective cytotoxin and a radiation sensitizer
Mammalian cell cultures; listed as 1-nitracrine
  potency as radiation sensitizer / hypoxia selective cytotoxin: twenty times more potent as a sensitizer than other nitracrine isomers tested
[8]
  metabolism in vivo: rapid metabolism

## O=[N+]([O-])c1nccn1CCCNc1c2c(nc3ccccc13)CCC2 [NLCPQ-1, 9-[3-(2-nitro-1-imidazolyl)propylamino]cyclopenten[b]quinoline hydrochloride]
[3]
  IC50 at 1 h: 170 µM
[4]
  IC50: 22 µM
[5]; [10]
  EC (SER 1.6): 7 µM
[5]; [11]
  EC (SER 1.6): 209 µM
[5]
  maximum SER value: equal to OER
  Therapeutic index (ThI): IC50/A,1h /C1.6: 25
V79 cells [6]; read-out: Isoeffective to the oxygen dose at 7.5 Gy: IsD(7.5)
  EC (isoeffective to oxygen at 7.5 Gy): 25.5 µM
[7]
  Partition coefficient in octanol/water: PCo/w: 0.30
[7]; read-out: Partition coefficient in octanol/water: PCo/w (converted)
  logP: -0.523
V79 cells [9]
  chemosensitization to L-PAM or cis-DDP: strong chemosensitizers
Water solubility
  solubility: ~11 mM
